Consider ten molecules from PMC9979347 (ACS Omega, 2023).

“And” between values parts separate entries of the source, which are not always exact repeats. Equal entries are not always repeated. “Also recorded” adds a separate entry of the source. Where two headings read alike, the source gives them in different places.

For assay [1], the target named is hCA I (Homo sapiens, UniProt P00915). In words: stopped-flow CO2 hydration inhibition assay. It counts as biochemical.
The target of assay [2] is hCA IX (Homo sapiens, UniProt Q16790). In words: biochemical. It counts as biochemical.
Assay [3] concerns the target hCA XII (Homo sapiens, UniProt O43570). Put plainly: biochemical.
Assay [4] concerns the target hCA II (Homo sapiens, UniProt P00918). Put plainly: stopped-flow CO2 hydration inhibition assay. It counts as biochemical.
The subject of assay [5] is SR. In words: NCI-60 SRB screen. Type of assay: cell-based, human. Particulars: five-dose, 48 h.
The test system of assay [6] is HEK293T cells. Put plainly: cells. Particulars: Homo sapiens, HEK-293T, 48 h, read-out: IC50 (μM ± SD) normal HEK293T cells, MTT, 48 h, triplicate.
Assay [7] addresses T1, recombinant Pim-1 kinase (Homo sapiens, UniProt P11309). In words: biochemical. Particulars: Pim-1 kinase IC50 (μM ± SD), ADP-Glo. (ADP-Glo first removes unused ATP, then detects ADP through luciferase.)
Assay [8] concerns hypoxic U251 cells. Put plainly: cells. Particulars: Homo sapiens, U-251, 48 h, read-out: Cytotoxicity IC50 (μM ± SD) U251.
The subject of assay [9] is hCA I, II, IX, and XII. Put plainly: stopped-flow CO2 hydration inhibition assay, across the four isoforms. It counts as biochemical, human.
In assay [10] the test system is HEK293T cells. Conditions: for selectivity against colorectal carcinoma HCT116 cells: HEK293T IC50 versus HCT116 GI50; for average cancer cell fold selectivity: HEK293T IC50 versus average NCI-60 GI50; for IC50: read-out: IC50 (μM ± SD) normal HEK293T cells, MTT, 48 h, triplicate; for cancer cell selectivity compared to non-cancerous HEK293T cells: up to.
The subject of assay [11] is hypoxic HCT116 cells. In words: cells. Particulars: Homo sapiens, HCT-116, 48 h, read-out: Cytotoxicity IC50 (μM ± SD) HCT116.
The subject of assay [12] is hypoxic LOX IMVI cells. In words: cells. Conditions: Homo sapiens, 48 h, read-out: Cytotoxicity IC50 (μM ± SD) LOX IMVI.
Assay [13] relates to K-562. Put plainly: NCI-60 SRB screen. It counts as cell-based. Conditions: Homo sapiens, K562, 48 h.
Assay [14] deals with ROS level in HCT116 cells. Put plainly: reactive oxygen species fluorometric assay. Type of assay: cell-based, human. Particulars: HCT116, 2.94 μM.
Assay [15] has as its system Nrf2 in HCT116 cell nuclei. In words: Nrf2 transcription factor ELISA on nuclear protein. Type of assay: cell-based, human. (In an ELISA, binding on a coated surface is turned into a signal by an enzyme label.)
For assay [16], the system named is HCT116 cells. In words: Annexin V-FITC/PI apoptosis assay. Type of assay: cell-based, human. Particulars: HCT116, 2.94 μM, 24 h.
The test system of assay [17] is HCT116 cells. Put plainly: cell cycle analysis by propidium iodide flow cytometry. It counts as cell-based, human. Conditions: HCT116, 2.94 μM, 24 h. (In general: In flow cytometry, cells or beads pass a laser one at a time.)
Assay [18] concerns the target T1, recombinant Pim-1 kinase.
Assay [19] deals with HCT15. Put plainly: NCI-60 SRB screen. It counts as cell-based. Conditions: Homo sapiens, HCT-15, 48 h.

T1 sequence (P11309 whole entry): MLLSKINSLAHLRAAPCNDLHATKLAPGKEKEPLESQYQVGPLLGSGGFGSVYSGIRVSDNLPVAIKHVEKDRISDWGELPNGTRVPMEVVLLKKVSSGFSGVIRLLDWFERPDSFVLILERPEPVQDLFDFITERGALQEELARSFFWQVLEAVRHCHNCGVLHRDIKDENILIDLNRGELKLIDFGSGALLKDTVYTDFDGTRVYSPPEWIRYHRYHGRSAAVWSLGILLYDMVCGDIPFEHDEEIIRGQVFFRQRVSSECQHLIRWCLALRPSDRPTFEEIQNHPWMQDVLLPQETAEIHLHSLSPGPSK
hCA I, sequence (P00915 whole entry): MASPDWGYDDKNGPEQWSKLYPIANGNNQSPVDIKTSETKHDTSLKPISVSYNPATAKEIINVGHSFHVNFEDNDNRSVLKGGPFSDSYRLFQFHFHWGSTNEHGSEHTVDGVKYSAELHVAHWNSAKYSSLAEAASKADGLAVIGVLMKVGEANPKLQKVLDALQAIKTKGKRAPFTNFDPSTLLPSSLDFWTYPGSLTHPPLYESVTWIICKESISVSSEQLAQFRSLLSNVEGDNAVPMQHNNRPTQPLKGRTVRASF
hCA XII, sequence (O43570 25-354): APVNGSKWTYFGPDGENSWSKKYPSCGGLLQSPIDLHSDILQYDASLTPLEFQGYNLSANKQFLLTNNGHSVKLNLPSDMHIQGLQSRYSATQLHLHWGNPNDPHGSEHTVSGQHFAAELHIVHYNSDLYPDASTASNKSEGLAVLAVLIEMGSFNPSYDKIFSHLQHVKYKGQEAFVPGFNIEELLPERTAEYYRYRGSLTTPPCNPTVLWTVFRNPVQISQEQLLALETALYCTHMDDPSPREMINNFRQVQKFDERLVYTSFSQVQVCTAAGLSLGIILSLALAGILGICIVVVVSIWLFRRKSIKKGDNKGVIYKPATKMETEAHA

By Ki is commonly meant a dissociation constant, usually derived from enzyme kinetics or from competition with a known ligand. As for `COc1ccc(C(=O)/C=C/c2ccccc2Cl)cc1S(N)(=O)=O` [4a, 5-[(2E)-3-(2-Chlorophenyl)prop-2-enoyl]-2-methoxybenzene-1-sulfonamide], the Ki in assay [1], in assay [2], in [3] and in [4] was > 10 µM in each case.

Broadly, the GI50 is the concentration at which growth is held to half of that of the control. A higher GI50 goes with lower sensitivity of the cells. In the case of `COc1ccc(C(=O)/C=C/c2cccc(Cl)c2)cc1S(N)(=O)=O` [4b, 5-[(2E)-3-(3-Chlorophenyl)prop-2-enoyl]-2-methoxybenzene-1-sulfonamide], the Ki in assay [1], in assay [2], in assay [3] and in assay [4] was > 10 µM throughout. Besides, in assay [5], the GI50 entry was “sub-micromolar”.

As to `COc1ccc(C(=O)/C=C/c2ccccc2Br)cc1S(N)(=O)=O` [4c, 5-[(2E)-3-(2-Bromophenyl)prop-2-enoyl]-2-methoxybenzene-1-sulfonamide], the Ki in [1] was > 10 µM; in assay [2], 4.71 µM; in [3], > 10 µM; in assay [4], > 10 µM.

As a reminder, the IC50 is the concentration needed to halve the response being measured. For `COc1ccc(C(=O)/C=C/c2cccc(Br)c2)cc1S(N)(=O)=O` [4d, 5-[(2E)-3-(3-Bromophenyl)prop-2-enoyl]-2-methoxybenzene-1-sulfonamide], the IC50 in assay [6] is ~53 µM; in [7] it was ~1.06 µM and 1.06 µM; in assay [8], 14.8 ± 0.61 µM; in [10] it was 52.7 ± 2.03 µM; in [11], 6.32 ± 0.38 µM; in assay [12] it was 38.3 ± 1.63 µM. Moreover, the inhibition constant Ki turned out to be 0.85 µM in [1]; 4 µM in assay [9] (read-out: average Ki value against the four tested isoforms, hCA I, II, IX, XII); 0.5 µM in assay [4]. The GI50 entry in assay [5] is reported as “sub-micromolar”. The “selectivity toward hCA I and hCA II over hCA IX and hCA XII” value in [9] was “ca. 10 fold”. Besides, in assay [10], the “selectivity against colorectal carcinoma HCT116 cells” value was “ca. 50 fold”. For the same molecule, the “average cancer cell fold selectivity” value in assay [10] is listed as “ca. 20 fold”. For the same molecule, the “cancer cell selectivity compared to non-cancerous HEK293T cells” value in assay [10] is given as “up to 50 fold”.

In turn, `COc1ccccc1/C=C/C(=O)c1ccc(OC)c(S(N)(=O)=O)c1` [4e, 2-Methoxy-5-[(2E)-3-(2-methoxyphenyl)prop-2-enoyl]benzene-1-sulfonamide] displayed a GI50 in assay [13] of 0.35 µM.

For the molecule `COc1ccc(C(=O)/C=C/c2ccc(Cl)c(Cl)c2)cc1S(N)(=O)=O` [4i, 5-[(2E)-3-(3,4-Dichlorophenyl)prop-2-enoyl]-2-methoxybenzene-1-sulfonamide], in assay [5], the GI50 entry is “sub-micromolar”.

Turning to `COc1ccc(C(=O)/C=C/c2cccc3ccccc23)cc1S(N)(=O)=O` [4j, 2-Methoxy-5-[(2E)-3-(naphthalen-1-yl)prop-2-enoyl]benzene-1-sulfonamide], the IC50 in [6] was ~20 µM. Moreover, the Ki in assay [1] was > 10 µM. Also, the “ROS level increase compared to DMSO-treated cells” value in [14] is “ca. 50%”. For the same molecule, the “fold increase in transcriptionally active nuclear Nrf2” value in [15] (HCT116, 2.94 μM, versus DMSO) was “ca. 3.3 fold”. Besides, in assay [15] (HCT116 nuclei, 2.94 μM, control 0.89), the “Nrf2 (ng/mL ± SD)” value was determined as 2.92 ng/mL. Besides, the “selectivity to hCA IX over hCA I and hCA II / other tested isoforms” value in [2] is recorded as “ca. six-fold selectivity; also recorded: more than six-fold selective; also recorded: greater than six-fold selectivity”. Further, the IC50 in [7] was ~0.34 µM and 0.34 µM. Besides, in assay [8], the IC50 turned out to be 4.6 ± 0.26 µM. Besides, in assay [5], the GI50 entry is listed as “sub-micromolar”. In assay [10], the “selectivity against colorectal carcinoma HCT116 cells” value was ~15 fold, the “average cancer cell fold selectivity” value was ~9 fold, the IC50 worked out at 20.4 ± 0.94 µM and the “cancer cell selectivity compared to non-cancerous HEK293T cells” value is “up to 50 fold”. For the same molecule, the 50% inhibitory concentration (IC50) in assay [11] is 2.94 ± 0.19 µM. Moreover, the inhibitory constant (Ki) in assay [4] was > 10 µM. Further, the IC50 in assay [12] was found to be 12.1 ± 0.54 µM. For the same molecule, in [16], the early apoptosis is recorded as 8.3%, the “fold increase of total apoptotic cells versus control” value is 25 fold, the late apoptosis turned out to be 27.8% and the total apoptotic cells is 39.5%. Also, in assay [17], the “cell cycle arrest phase” value is reported as “arrested the cell cycle of HCT116 cells at the G1/S phase; also recorded: arresting cell growth at the G1/S phase”, the “percentage of cells at the G2/M phase” value is on record as 6%, the “percentage of cells in G1 (G0-G1) phase” value was 52% and the “percentage of cells in S phase” value is listed as 42%. The “fold more potent than staurosporine on Pim-1 kinase” value in assay [18] is recorded as “ca. 1.4 fold”.

Take `COc1ccc(C(=O)/C=C/c2ccc3ccccc3c2)cc1S(N)(=O)=O` [4k, 2-Methoxy-5-[(2E)-3-(Naphthalen-2-Yl)Prop-2-Enoyl]Benzene-1-Sulfonamide]: the figures for the GI50 in [19] and in [5] were 0.58 µM and “sub-micromolar”, respectively. Besides, the Ki in assay [1], in assay [2], in assay [3] and in [4] was > 10 µM each time.

Regarding `COc1ccc(C(=O)/C=C/c2cc3c(cc2Br)OCO3)cc1S(N)(=O)=O` [4l, 5-[(2E)-3-(6-Bromo-2H-1,3-benzodioxol-5-yl)prop-2-enoyl]-2-methoxybenzene-1-sulfonamide], the Ki in assay [1] was > 10 µM. This molecule also yielded a 50% growth inhibitory concentration (GI50) in [13] of 0.45 µM.

With `COc1ccc(C(C)=O)cc1S(N)(=O)=O` [compound 3, 5-acetyl-2-methoxybenzene-1-sulfonamide], the inhibitory constant (Ki) amounted to 2.32 µM in assay [1], 1.39 µM in assay [2], 5.25 µM in assay [3] and 4.59 µM in [4].
